Reference: patent publication US20250129086A1, “COMPOUND FOR DEGRADING EGFR PROTEIN AND USE THEREOF” (TYK MEDICINES, INC., priority 2021, published 2025)

Legend:
[1] = biological target: T1, EGFR (Homo sapiens, UniProt P00533, DEL746-750); experiment: EGFR PROTAC In Cell Western assay in HCC827; assay type: cell-based; conditions: HCC827, EGFR degradation, 16 hours of incubation
T1 construct: host or cells: HCC827
Excerpt: Test Example 2 EGFR PROTAC in Cell Western Assay
HCC827 cell culture medium was purchased from Corning. Cell line HCC827 was purchased from BeNa Culture Collection; EGF Receptor (D38B1) XP Rabbit mAb antibody and β-Actin (8H10D10) Mouse mAb antibody were from CST. IRDye 800CW, IRDye 680RD, and Intercept blocking solution (PBS) were purchased from Licor. Triton-100 was purchased from sigma, and 96-well black cell culture imaging microtiter plates were purchased from Agilent.
1) HCC827 cells were cell counted and cells were inoculated into 96-well black cell culture imaging microtiter plates at a density of 40,000 cells per well, with 100 μl per well. The plate was incubated overnight in a CO2 incubator.
2) Day 1: A gradient dilution of the compound to be tested was added to the cells of the culture plate (with a starting concentration of […], 9 concentrations, a dilution ratio of 1:3, 2 duplicate wells), with a final concentration of DMSO being 0.5%, and a blank control of DMSO without compound. The plate was placed in the cell culture incubator for a final 16 hours of incubation.
3) The culture medium was removed from the 96 wells with a pipette and the residual medium was washed with […] of PBS per well on a shaker for 5 min. After the removal of PBS, cells were quickly fixed by adding 150 μl of fresh fixation buffer (3.7% paraformaldehyde) and incubated for 20 min at room temperature.
4) The fixation buffer was removed and […] of Triton elution buffer (0.3% Triton-100) was added to wash for four times on a shaker for 5 minutes each time.
5)[…] LI-COR Odyssey blocking solution was added and the cells were incubated for 1.5 hours at room temperature with slow shaking on a shaker.
6) To block the samples, a primary antibody against EGFR and Actin were prepared using Antibody Dilution Buffer at a ratio of 1:300. The blocking solution was poured out and the diluted primary antibody was added (at a total volume of 50 μl/per well). The cell plate was covered and incubated at 4° C. overnight.
7) The cell plate was washed four times with PBS+Triton X-100 for 5 minutes each time.
8) Fluorescently labeled secondary antibodies IRDye® 680RD and IRDye® 800CW were diluted with Antibody Dilution Buffer (with a ratio of 1:600, at a total volume of 50 μl/well) and then incubated for one hour at room temperature, protected from light.
9) The cell plate was washed four times with PBS+Triton X-100 for 5 minutes each time.
After pipetting the PBS thoroughly, the plate was inverted and imaged on a Burroughs imager. A multiple exposure program was selected, IRDye 680RD Blot was chosen for the first channel, and IRDye 800CW Blot was chosen for the second channel. […] The blank group was the DMSO group, EGFR/Actin was calculated as the EGFR value of the corresponding sample wells, and the degradation rate=100-100*EGFR signal/DMSO signal. The DC50 and Dmax of the degraded EGFR proteins were calculated by fitting curves using the Prism software, 3-parameter method.

[2] = system: PC-9 (EGFR exon 19 deletion); experiment: Cell antiproliferative assay (CTG, 72 h), PC-9; assay type: cell-based, human; conditions: Homo sapiens, PC-9, 72 h
How it was run: (§1)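 Viability by CTG luminescence after 72 h compound exposure, normalised between blank medium and 0.1% DMSO controls, with IC50 from fitted curves. Dosing in triplicate, top 10,000 nM, 4-fold dilutions, applied about 24 h after plating 1500-2500 cells per well.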

[3] = system: H1975 (EGFR L858R/T790M double mutation); experiment: Cell antiproliferative assay (CTG, 72 h), H1975; assay type: cell-based, human; conditions: Homo sapiens, NCI-H1975, 72 h
How it was run: as §1

[4] = system: HCC827 (exon 19 deletion mutation); experiment: Cell antiproliferative assay (CTG, 72 h), HCC827; assay type: cell-based, human; conditions: Homo sapiens, HCC827, 72 h
How it was run: as §1

T1 sequence (P00533 with tags, fused parts or gaps DEL746-750): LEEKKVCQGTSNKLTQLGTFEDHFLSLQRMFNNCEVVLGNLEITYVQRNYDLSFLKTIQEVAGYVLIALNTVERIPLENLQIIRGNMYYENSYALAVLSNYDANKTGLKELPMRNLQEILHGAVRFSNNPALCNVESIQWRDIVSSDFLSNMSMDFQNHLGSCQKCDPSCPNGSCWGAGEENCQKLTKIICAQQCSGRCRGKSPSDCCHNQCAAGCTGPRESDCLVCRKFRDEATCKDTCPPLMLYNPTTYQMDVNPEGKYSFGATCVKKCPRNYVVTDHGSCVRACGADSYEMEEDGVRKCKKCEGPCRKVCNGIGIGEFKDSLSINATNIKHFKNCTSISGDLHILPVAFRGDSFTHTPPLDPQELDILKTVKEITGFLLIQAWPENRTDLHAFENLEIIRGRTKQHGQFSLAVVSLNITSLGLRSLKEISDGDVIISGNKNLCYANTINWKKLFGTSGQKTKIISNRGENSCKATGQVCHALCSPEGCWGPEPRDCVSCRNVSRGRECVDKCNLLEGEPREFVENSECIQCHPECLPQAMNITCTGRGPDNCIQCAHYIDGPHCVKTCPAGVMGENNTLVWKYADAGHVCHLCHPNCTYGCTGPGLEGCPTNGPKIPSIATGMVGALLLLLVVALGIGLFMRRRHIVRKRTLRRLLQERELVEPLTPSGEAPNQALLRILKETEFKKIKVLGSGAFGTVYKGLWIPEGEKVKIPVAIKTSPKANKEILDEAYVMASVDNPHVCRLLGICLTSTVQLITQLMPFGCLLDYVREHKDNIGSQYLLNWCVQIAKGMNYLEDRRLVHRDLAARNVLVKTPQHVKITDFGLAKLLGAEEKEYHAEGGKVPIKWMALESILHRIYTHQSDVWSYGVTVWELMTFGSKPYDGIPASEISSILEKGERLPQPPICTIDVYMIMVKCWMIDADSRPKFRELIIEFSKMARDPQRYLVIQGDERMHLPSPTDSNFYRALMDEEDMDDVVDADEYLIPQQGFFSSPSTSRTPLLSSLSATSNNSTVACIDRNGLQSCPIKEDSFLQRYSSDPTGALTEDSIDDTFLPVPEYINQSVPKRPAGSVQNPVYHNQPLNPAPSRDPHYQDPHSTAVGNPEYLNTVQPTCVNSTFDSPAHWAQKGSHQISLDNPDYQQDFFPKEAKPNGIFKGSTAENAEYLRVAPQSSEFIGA

Row | SMILES | Dmax ([1]; HCC827, Table 4) [%] | DC50 ([1]; Table 4) [nM] | IC50 ([2]; Table 2, PC-9 cells) [nM] | IC50 ([2]; Table 3, PC-9 cells) [nM] | IC50 ([3]; Table 2, H1975 cells) [nM] | IC50 ([3]; Table 3, H1975 cells) [nM] | IC50 ([4]; Table 2, HCC827 cells) [nM] | IC50 ([4]; Table 3, HCC827 cells) [nM] | Dmax ([1]; HCC827, Table 5) [%] | DC50 ([1]; Table 5) [nM]
1 | O=C1CCC(Nc2ccc(C3CCN(CC(=O)N4CCN(c5ccc(-c6cc(F)c7c(c6)C(=O)N(C(C(=O)Nc6nccs6)c6ncn8c6CCC8)C7)cc5)CC4)CC3)cc2)C(=O)N1 (centres unmarked) [Comparative Compound 1, reference compound] | < 50 | ≥ 1000 | ≥ 1000 | > 5000 | 100 to 1000 | 548 | ≥ 1000 | > 5000 | – | –
2 | COc1cc(N2CCC(N3CCN(C(=O)C4CCN(CC5CCN(c6ccc7c(c6)C(=O)N(C6CCC(=O)NC6=O)C7=O)CC5)CC4)CC3)CC2)ccc1Nc1ncc(Cl)c(Nc2ccccc2P(C)(C)=O)n1 (centres unmarked) [Comparative Compound 2, reference compound] | 50 to 70 | 10 to 100 | ≥ 1000 | 1940 | 100 to 1000 | 186 | 100 to 1000 | 221 | 64.7 | 22.3
3 | COc1cc(N2CCC(N3CCN(C(=O)CCCCN4CCN(c5ccc6c(c5)C(=O)N(C5CCC(=O)NC5=O)C6=O)CC4)CC3)CC2)ccc1Nc1ncc(Cl)c(Nc2ccccc2N(C)S(C)(=O)=O)n1 (centres unmarked) [Comparative Compound 3, reference compound] | 50 to 70 | 10 to 100 | 100 to 1000 | 682 | 100 to 1000 | 386 | 10 to 100 | 72.5 | 56.4 | 15.2
4 | COc1cc(C(=O)N2CCC(c3ccc(NC4CCC(=O)NC4=O)cc3)CC2)ccc1Nc1ncc(Cl)c(Nc2ccccc2C(C)=O)n1 (centres unmarked) [Compound T-130] | < 50 | 100 to 1000 | – | – | – | – | – | – | – | –
5 | COc1cc(N2CCN(C(=O)CN3CCC(c4ccc(NC5CCC(=O)NC5=O)cc4)CC3)CC2)ccc1Nc1ncc(C(F)(F)F)c(Nc2ccc(F)cc2F)n1 (centres unmarked) [Compound T-131] | < 50 | 10 to 100 | – | – | – | – | – | – | – | –
6 | COc1cc(N2CCN(C(=O)CN3CCC(c4ccc(Cn5ccc(=O)[nH]c5=O)cc4)CC3)CC2)ccc1Nc1ncc(Cl)c(Nc2ccccc2C(C)=O)n1 [Compound T-332] | – | – | 100 to 1000 | – | 100 to 1000 | – | 100 to 1000 | – | – | –
7 | COc1cc(N2CCN(C(=O)CN3CCC(c4ccc(CN5CCC(=O)NC5=O)cc4)CC3)CC2)ccc1Nc1ncc(Cl)c(Nc2ccccc2C(C)=O)n1 [Compound T-337] | – | – | 100 to 1000 | – | 100 to 1000 | – | 100 to 1000 | – | – | –
8 | COc1cc(N2CCN(CC(=O)N3CCC(c4ccc(NC5CCC(=O)NC5=O)cc4)CC3)CC2)ccc1Nc1ncc(Cl)c(Nc2ccccc2C(C)=O)n1 (centres unmarked) [Compound T-338] | – | – | 100 to 1000 | – | 100 to 1000 | – | 100 to 1000 | – | – | –
9 | C=CC(=O)Nc1cc(Nc2ncc(C(F)(F)F)c(Nc3ccccc3)n2)c(OC)cc1N1CCN(C(=O)CN2CCC(c3ccc(NC4CCC(=O)NC4=O)cc3)CC2)CC1 (centres unmarked) [Compound T-339] | – | – | 100 to 1000 | – | 100 to 1000 | – | 100 to 1000 | – | – | –
10 | CNC(=O)c1ccccc1Nc1nc(Nc2cc(C)c(N3CCN(C(=O)CN4CCC(c5ccc(NC6CCC(=O)NC6=O)cc5F)CC4)CC3)cc2OC)ncc1Br (centres unmarked) [Compound T-368] | – | – | 10 to 100 | – | 10 to 100 | – | 10 to 100 | – | – | –
11 | CNC(=O)c1ccccc1Nc1nc(Nc2cc(C)c(N3CCN(C(=O)CN4CCC(c5ccc(NC6CCC(=O)NC6=O)cc5F)CC4)CC3)cc2OC)ncc1C(F)(F)F (centres unmarked) [Compound T-369] | – | – | 10 to 100 | – | 10 to 100 | – | 10 to 100 | – | – | –

Now from value to molecule:

Row | Dmax ([1]; HCC827, Table 4) [%] | DC50 ([1]; Table 4) [nM] | IC50 ([2]; Table 2, PC-9 cells) [nM] | IC50 ([2]; Table 3, PC-9 cells) [nM] | IC50 ([3]; Table 2, H1975 cells) [nM] | IC50 ([3]; Table 3, H1975 cells) [nM] | IC50 ([4]; Table 2, HCC827 cells) [nM] | IC50 ([4]; Table 3, HCC827 cells) [nM] | Dmax ([1]; HCC827, Table 5) [%] | DC50 ([1]; Table 5) [nM] | SMILES
12 | < 50 | 100 to 1000 | – | – | 10 to 100 | – | – | – | – | – | COc1cc(N2CCC(N(C)C(=O)C3CCN(CC4CCN(c5ccc6c(c5)C(=O)N(C5CCC(=O)NC5=O)C6=O)CC4)CC3)CC2)ccc1Nc1ncc(Cl)c(Nc2ccccc2C(C)=O)n1 (centres unmarked) [Compound T-228]
13 | – | – | ≥ 1000 | – | 10 to 100 | – | 100 to 1000 | – | – | – | COc1cc(N2CCN(C(=O)CN3CCC(c4ccc(NC5CCC(=O)NC5=O)cc4)CC3)CC2)ccc1Nc1ncc(Cl)c(Nc2ccccc2C(=O)NC2CCCC2)n1 (centres unmarked) [Compound T-341]
14 | – | – | 100 to 1000 | – | 10 to 100 | – | 10 to 100 | – | – | – | COc1cc(N2CCN(C(=O)CN3CCC(c4ccc(NC5CCC(=O)NC5=O)cc4)CC3)CC2)ccc1Nc1ncc(Br)c(Nc2ccccc2C(=O)NC2CCCC2)n1 (centres unmarked) [Compound T-342]
15 | – | – | 10 to 100 | – | 10 to 100 | – | 10 to 100 | – | – | – | COc1cc(N2CCN(C(=O)CN3CCC(c4ccc(NC5CCC(=O)NC5=O)cc4)CC3)CC2)ccc1Nc1ncc(C(F)(F)F)c(Nc2ccccc2C(=O)NC2CCCC2)n1 (centres unmarked) [Compound T-343]
16 | – | – | 100 to 1000 | – | 10 to 100 | – | 100 to 1000 | – | – | – | COc1cc(N2CCC(N(C)C(=O)CN3CCC(c4ccc(NC5CCC(=O)NC5=O)cc4)CC3)CC2)ccc1Nc1ncc(Cl)c(Nc2ccccc2C(C)=O)n1 (centres unmarked) [Compound T-353]
17 | – | – | 10 to 100 | – | 10 to 100 | – | 10 to 100 | – | – | – | CNC(=O)c1ccccc1Nc1nc(Nc2cc(C)c(N3CCN(C(=O)CN4CCC(c5ccc(NC6CCC(=O)NC6=O)cc5)CC4)C(C)C3)cc2OC)ncc1Cl (centres unmarked) [Compound T-355]
18 | – | – | 10 to 100 | – | 10 to 100 | – | 10 to 100 | – | – | – | CNC(=O)c1ccccc1Nc1nc(Nc2cc(C)c(N3CCN(C(=O)CN4CCC(c5ccc(NC6CCC(=O)NC6=O)cc5)CC4)C(C)C3)cc2OC)ncc1Br (centres unmarked) [Compound T-356]
19 | – | – | 10 to 100 | – | 10 to 100 | – | 10 to 100 | – | – | – | CNC(=O)c1ccccc1Nc1nc(Nc2cc(C)c(N3CCN(C(=O)CN4CCC(c5ccc(NC6CCC(=O)NC6=O)cc5)CC4)C(C)C3)cc2OC)ncc1C(F)(F)F (centres unmarked) [Compound T-357]
20 | – | – | 10 to 100 | – | 10 to 100 | – | 10 to 100 | – | – | – | CNC(=O)c1ccccc1Nc1nc(Nc2cc(C)c(N3CCN(C(=O)CN4CCC(c5ccc(NC6CCC(=O)NC6=O)cc5)CC4)CC3C)cc2OC)ncc1Br (centres unmarked) [Compound T-359]
21 | – | – | 10 to 100 | – | 10 to 100 | – | 10 to 100 | – | – | – | CNC(=O)c1ccccc1Nc1nc(Nc2cc(C)c(N3CCN(C(=O)CN4CCC(c5ccc(NC6CCC(=O)NC6=O)cc5F)CC4)CC3)cc2OC)ncc1Cl (centres unmarked) [Compound T-367]
